According to patent US20240182460A1, “ALLOSTERIC CHROMENONE INHIBITORS OF PHOSPHOINOSITIDE 3-KINASE (PI3K) FOR THE TREATMENT OF DISEASE” (PETRA PHARMA CORPORATION, priority 2022, published 2024):

Each compound was assayed against PI3Kα E545K (Homo sapiens, UniProt P42336, E545K) (assay: PI3Kα E545K mutant in vitro cell based assay, MDA-MB-361 cells). Conditions: MDA-MB-361 cell line, 0% FBS, no insulin, 3 hours treatment.
Parameters: MDA-MB-361 (ATCC-HTB-27) cell line (PI3Kα E545K); host or cells: MDA-MB-361
From the text: PI3K-Alpha Kinase (PI3Kα) Activity: Wild-Type PI3Kα, H1047R Mutant PI3Kα, and E545K Mutant PI3Kα In Vitro Cell Based Assays and Determination of IC50 Values for Inhibitors
The MDA-MB-453 (ATCC-HTB-131) cell line (PI3Kα H1047R) and MCF-7 (ATCC-HTB-22) cell line (PI3Kα E545K), MDA-MB-361 (ATCC-HTB-27) cell line (PI3Kα E545K), and SKBR3 (ATCC-HTB-30) cell line (wild type PI3Kα) were obtained from the American Type Culture Collection (Manassas, VA). MDA-MB-453 cells were maintained in Dulbecco's Modified Eagle Media (DMEM, Gibco 12430) supplemented with 10% Fetal Bovine Serum, heat inactivated (FBS HI, Gibco 10082), 1× non-essential amino acids (NEAA, Gibco 11140), 1 mM sodium pyruvate (Gibco 11360) and 1× Anti-Anti (Gibco 15240). MCF-7 cells were maintained in Minimum Essential Media (MEM) (Gibco 11095) supplemented with 10% Fetal Bovine Serum, heat inactivated (FBS HI, Gibco 10082), 1× non-essential amino acids (NEAA, Gibco 11140), 1 mM sodium pyruvate (Gibco 11360), 1× Anti-Anti (Gibco 15240) and 10 μg/mL human insulin (Sigma I 9278). MDA-MB-361 cells were maintained in Dulbecco's Modified Eagle Media (DMEM, Gibco 12430) supplemented with 20% Fetal Bovine Serum, heat inactivated (FBS HI, Gibco 10082), 1× non-essential amino acids (NEAA, Gibco 11140), 1 mM sodium pyruvate (Gibco 11360) and 1× Anti-Anti (Gibco 15240). SKBR3 cells were maintained in McCoy's 5A (Gibco 16600) supplemented with 10% Fetal Bovine Serum, heat inactivated (FBS HI, Gibco 10082), and 1× Anti-Anti (Gibco 15240). Cultures were maintained in a humidified incubator at 37° C. under 5% CO2/95% air.
For compound testing in 0% FBS, MDA-MB-453, MCF-7 and SKBR3 cells were seeded at a density of 1.5×10^4, 1.0×10^4, and 1.0×10^4 cells, respectively, per well in white 384-well plates in 20 μl of Minimum Essential Media (MEM) assay media with 1×NEAA, 1 mM sodium pyruvate, and 1 μg/mL human insulin (Sigma 19278) (Assay Medium); while MDA-MB-361 cells were seeded at a density of 1.5×10^4 per well in white 384-well plates in 20 μl Assay Medium without insulin. After plating, cells were allowed to attach overnight. Compounds dissolved in 10 mM stock solutions in DMSO were serially diluted 1:3 in DMSO to generate a 10-point dilution series and plated using an acoustic liquid handler system (Echo 550 Series Liquid Handler, Labcyte). A 5× intermediate compound dilution plate in MEM with 1×NEAA and 1 mM sodium pyruvate (150 μM starting compound concentration in 1.5% DMSO) was then prepared. Five μl of the intermediate serially diluted compounds were added to the cell plate to final concentrations ranging from […] in 0.3% DMSO. 0.3% DMSO alone was used to establish the maximum (MAX) signal and GDC-0032 at a final concentration of 1 μM was used as a reference compound for the minimum (MIN) signal. After 3 hours treatment, the medium was removed, and the cells were lysed in 10 μL of 1× SureFire Lysis buffer with shaking for 10 minutes at room temperature. The Acceptor Mix (Reaction Buffer 1+Reaction Buffer 2+Activation Buffer+SureFire Ultra Acceptor Beads) was prepared by diluting Activation buffer 25-fold in combined Reaction Buffer 1 and Reaction Buffer 2.
The Acceptor beads were diluted 50-fold in the combined Reaction Buffers. Five μL of Acceptor Mix was added to each well, the plate was sealed and covered with foil and incubated for 1 hour at room temperature. The Donor Mix (dilution buffer+SureFire Ultra Donor Beads) was prepared by diluting Donor Beads 50-fold in dilution buffer. Five μL of the Donor Mix was added to each well and the plate sealed and covered with foil and incubated for 1-2 hours at room temperature in the dark. The plates were read on a Neo2 plate reader instrument from Biotek using standard AlphaLisa settings.
Compounds were tested in duplicate and the % inhibition at each compound concentration was used to generate two dose response curves. One IC50 was generated using average % inhibition at each compound concentration. […]

PI3Kα E545K, sequence (P42336 whole entry E545K): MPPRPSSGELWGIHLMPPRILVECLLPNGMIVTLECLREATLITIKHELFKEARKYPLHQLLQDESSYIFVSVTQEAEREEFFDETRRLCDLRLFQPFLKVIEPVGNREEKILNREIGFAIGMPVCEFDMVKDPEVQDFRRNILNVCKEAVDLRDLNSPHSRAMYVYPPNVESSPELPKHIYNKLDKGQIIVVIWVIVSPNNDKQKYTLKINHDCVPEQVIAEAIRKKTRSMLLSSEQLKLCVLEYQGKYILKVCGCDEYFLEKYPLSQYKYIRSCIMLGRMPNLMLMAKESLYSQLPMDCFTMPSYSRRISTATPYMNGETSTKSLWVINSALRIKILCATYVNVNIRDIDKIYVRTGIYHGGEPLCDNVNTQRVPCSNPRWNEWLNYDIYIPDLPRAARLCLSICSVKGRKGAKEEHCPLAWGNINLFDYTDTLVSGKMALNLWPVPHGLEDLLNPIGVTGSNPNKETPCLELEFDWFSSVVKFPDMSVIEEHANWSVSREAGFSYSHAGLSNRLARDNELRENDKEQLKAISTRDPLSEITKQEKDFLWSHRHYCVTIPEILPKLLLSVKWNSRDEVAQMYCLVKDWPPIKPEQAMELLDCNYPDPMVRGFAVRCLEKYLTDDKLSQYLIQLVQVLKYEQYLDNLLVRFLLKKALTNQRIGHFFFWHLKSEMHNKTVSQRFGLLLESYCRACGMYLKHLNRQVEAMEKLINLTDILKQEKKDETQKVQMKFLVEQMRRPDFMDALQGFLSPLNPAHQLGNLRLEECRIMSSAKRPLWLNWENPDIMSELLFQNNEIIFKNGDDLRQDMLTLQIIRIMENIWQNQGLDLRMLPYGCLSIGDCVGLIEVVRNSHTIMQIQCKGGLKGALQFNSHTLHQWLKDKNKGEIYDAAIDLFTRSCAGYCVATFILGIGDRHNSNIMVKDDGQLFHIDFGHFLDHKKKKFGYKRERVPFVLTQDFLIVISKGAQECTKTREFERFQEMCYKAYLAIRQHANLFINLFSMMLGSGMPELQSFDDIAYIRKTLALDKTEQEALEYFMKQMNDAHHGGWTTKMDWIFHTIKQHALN
PI3Kα E545K, sequence (P27986 whole entry partner): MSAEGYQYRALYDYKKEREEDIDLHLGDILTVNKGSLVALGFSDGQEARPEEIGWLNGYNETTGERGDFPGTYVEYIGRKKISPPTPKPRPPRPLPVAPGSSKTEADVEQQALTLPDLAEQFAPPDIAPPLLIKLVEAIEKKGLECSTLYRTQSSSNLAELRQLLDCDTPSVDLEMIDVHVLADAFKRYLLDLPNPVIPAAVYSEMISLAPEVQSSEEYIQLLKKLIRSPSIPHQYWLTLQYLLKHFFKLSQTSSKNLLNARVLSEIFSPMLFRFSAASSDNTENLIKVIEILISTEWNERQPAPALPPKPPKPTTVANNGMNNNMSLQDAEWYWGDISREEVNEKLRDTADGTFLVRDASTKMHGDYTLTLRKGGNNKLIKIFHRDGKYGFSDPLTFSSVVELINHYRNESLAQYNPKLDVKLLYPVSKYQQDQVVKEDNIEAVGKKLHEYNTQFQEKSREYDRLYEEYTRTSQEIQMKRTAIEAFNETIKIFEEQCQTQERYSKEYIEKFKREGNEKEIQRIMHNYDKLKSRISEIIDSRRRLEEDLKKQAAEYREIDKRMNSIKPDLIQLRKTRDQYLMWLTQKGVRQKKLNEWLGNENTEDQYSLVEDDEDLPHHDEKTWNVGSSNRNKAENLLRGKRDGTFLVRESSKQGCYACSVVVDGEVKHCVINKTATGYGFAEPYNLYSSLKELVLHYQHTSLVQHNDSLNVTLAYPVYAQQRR

IC50, < 500 nM:
CCc1nc2ccc(-c3oc4c([C@@H](C)Oc5ccc(Cl)nc5C(N)=O)cc(C)cc4c(=O)c3C)cc2s1 [Example 83C, 6-Chloro-3-[(1R)-1-[2-(2-ethyl-1,3-benzothiazol-6-yl)-3,6-dimethyl-4-oxo-chromen-8-yl]ethoxy]pyridine-2-carboxamide]
Cc1cc([C@@H](C)Oc2ccc(Cl)nc2S(N)(=O)=O)c2oc(-c3cnn(C)c3C)c(C)c(=O)c2c1 [Example 18C, 6-Chloro-3-[(1R)-1-[2-(1,5-dimethylpyrazol-4-yl)-3,6-dimethyl-4-oxo-chromen-8-yl]ethoxy]pyridine-2-sulfonamide]
Cc1cc([C@@H](C)Oc2ccc(Cl)nc2C(N)=O)c2oc(C3CC3)c(C)c(=O)c2c1 [Example 63A, 6-Chloro-3-[(1R)-1-(2-cyclopropyl-3,6-dimethyl-4-oxo-chromen-8-yl)ethoxy]pyridine-2-carboxamide]
Cc1cc([C@@H](C)Oc2ccc(Cl)nc2C(N)=O)c2oc(-c3ccc4c(c3)OC(F)(F)O4)c(C)c(=O)c2c1 [Example 60A, 6-Chloro-3-[(1R)-1-[2-(2,2-difluoro-1,3-benzodioxol-5-yl)-3,6-dimethyl-4-oxo-chromen-8-yl]ethoxy]pyridine-2-carboxamide]
Cc1cc([C@@H](C)Oc2ccc(Cl)nc2C(N)=O)c2oc(-c3cnn(C(F)F)c3)c(C)c(=O)c2c1 [Example 58A, 6-Chloro-3-[(1R)-1-[2-[1-(difluoromethyl)pyrazol-4-yl]-3,6-dimethyl-4-oxo-chromen-8-yl]ethoxy]pyridine-2-carboxamide]
Cc1cc([C@@H](C)Oc2ccc(Cl)nc2NC(=O)CO)c2oc(-c3cnn(C)c3)c(C)c(=O)c2c1 [Example 27B, N-[6-Chloro-3-[(1R)-1-[3,6-dimethyl-2-(1-methylpyrazol-4-yl)-4-oxo-chromen-8-yl]ethoxy]-2-pyridyl]-2-hydroxy-acetamide]
Cc1cc([C@@H](C)Oc2ccc(Cl)nc2C(N)=O)c2oc(-c3ccn4nc(C)cc4c3)c(C)c(=O)c2c1 [Example 76C, 6-Chloro-3-[(1R)-1-[3,6-dimethyl-2-(2-methylpyrazol[1,5-a]pyridin-5-yl)-4-oxo-chromen-8-yl]ethoxy]pyridine-2-carboxamide]
Cc1cc([C@@H](C)Oc2ccc(Cl)nc2C(N)=O)c2oc(-c3ccc4cc[nH]c(=O)c4c3)c(C)c(=O)c2c1 [Example 120A, 6-Chloro-3-[(1R)-1-[3,6-dimethyl-4-oxo-2-(1-oxo-2H-isoquinolin-7-yl)chromen-8-yl]ethoxy]pyridine-2-carboxamide]
Cc1cc([C@@H](C)Oc2ccccc2S(N)(=O)=O)c2oc(-c3ccccc3)c(C)c(=O)c2c1 [Example 102C, 2-[(1R)-1-(3,6-Dimethyl-4-oxo-2-phenyl-chromen-8-yl)ethoxy]benzenesulfonamide]
Cc1cc([C@@H](C)Oc2ccc(Cl)nc2S(N)(=O)=O)c2oc(-c3cnc(OC(C)C)nc3)c(C)c(=O)c2c1 [Example 23C, 6-Chloro-3-[(1R)-1-[2-(2-isopropoxypyrimidin-5-yl)-3,6-dimethyl-4-oxo-chromen-8-yl]ethoxy]pyridine-2-sulfonamide]
Cc1cc([C@@H](C)Oc2ccc(Cl)nc2C(N)=O)c2oc(-c3cnn(C4CC4)c3)c(C)c(=O)c2c1 [Example 51A, 6-Chloro-3-[(1R)-1-[2-(1-cyclopropylpyrazol-4-yl)-3,6-dimethyl-4-oxo-chromen-8-yl]ethoxy]pyridine-2-carboxamide]
Cc1cc([C@@H](C)Oc2ccc(Cl)nc2C(N)=O)c2oc(-c3ccc4nn(C5COC5)cc4c3)c(C)c(=O)c2c1 [Example 77C, 6-Chloro-3-[(1R)-1-[3,6-dimethyl-2-[2-(oxetan-3-yl)indazol-5-yl]-4-oxo-chromen-8-yl]ethoxy]pyridine-2-carboxamide]
Cc1cc([C@@H](C)Oc2ccc(Cl)nc2C(N)=O)c2oc(-c3cnn4c3COCC4)c(C)c(=O)c2c1 [Example 40A, 6-Chloro-3-[(1R)-1-[2-(6,7-dihydro-4H-pyrazolo[5,1-c][1,4]oxazin-3-yl)-3,6-dimethyl-4-oxo-chromen-8-yl]ethoxy]pyridine-2-carboxamide]
Cc1cc([C@@H](C)Oc2ccc(Cl)nc2S(N)(=O)=O)c2oc(-c3cnn(C[C@H](C)O)c3)c(C)c(=O)c2c1 [Example 7B, 6-Chloro-3-[(1R)-1-[2-[1-[(2S)-2-hydroxypropyl]pyrazol-4-yl]-3,6-dimethyl-4-oxo-chromen-8-yl]ethoxy]pyridine-2-sulfonamide]
Cc1cc([C@@H](C)Oc2ccc(Cl)nc2C)c2oc(-c3cnn(CCO)c3)c(C)c(=O)c2c1 [Example 72C, 8-[(1R)-1-[(6-Chloro-2-methyl-3-pyridyl)oxy]ethyl]-2-[1-(2-hydroxyethyl)pyrazol-4-yl]-3,6-dimethyl-chromen-4-one]
Cc1cc([C@@H](C)Oc2ccc(Cl)nc2S(N)(=O)=O)c2oc(-c3cnn(C)c3)c(C)c(=O)c2c1 [Example 14A, 6-Chloro-3-[(1R)-1-[3,6-dimethyl-2-(1-methylpyrazol-4-yl)-4-oxo-chromen-8-yl]ethoxy]pyridine-2-sulfonamide]
Cc1cc([C@@H](C)Oc2ccc(Cl)nc2S(N)(=O)=O)c2oc(-c3cnn4c3COCC4)c(C)c(=O)c2c1 [Example 3B, 6-Chloro-3-[(1R)-1-[2-(6,7-dihydro-4H-pyrazolo[5,1-c][1,4]oxazin-3-yl)-3,6-dimethyl-4-oxo-chromen-8-yl]ethoxy]pyridine-2-sulfonamide]
Cc1cc([C@@H](C)Oc2ccc(Cl)nc2C(N)=O)c2oc(-c3ccc4c(c3)OCCN4C)c(C)c(=O)c2c1 [Example 104A, 6-Chloro-3-[(1R)-1-[3,6-dimethyl-2-(4-methyl-2,3-dihydro-1,4-benzoxazin-7-yl)-4-oxo-chromen-8-yl]ethoxy]pyridine-2-carboxamide]
Cc1cc([C@@H](C)Oc2ccc(C)nc2S(N)(=O)=O)c2oc(-c3ccccc3)c(C)c(=O)c2c1 [Example 122C, 3-[(1R)-1-(3,6-Dimethyl-4-oxo-2-phenyl-chromen-8-yl)ethoxy]-6-methyl-pyridine-2-sulfonamide]
Cc1cc([C@@H](C)Oc2ccc(Cl)nc2C(N)=O)c2oc(-c3ccc4nn([C@H]5C[C@H](O)C5)cc4c3)c(C)c(=O)c2c1 [Example 134C, 6-Chloro-3-[(1R)-1-[2-[2-(3-hydroxycyclobutyl)indazol-5-yl]-3,6-dimethyl-4-oxo-chromen-8-yl]ethoxy]pyridine-2-carboxamide]
CCc1nc2ccc(-c3oc4c([C@@H](C)Oc5ccc(Cl)nc5C(N)=O)cc(C)cc4c(=O)c3C)cc2o1 [Example 84C, 6-Chloro-3-[(1R)-1-[2-(2-ethyl-1,3-benzoxazol-6-yl)-3,6-dimethyl-4-oxo-chromen-8-yl]ethoxy]pyridine-2-carboxamide]
Cc1cc([C@@H](C)Oc2cccnc2-c2ccccc2F)c2oc(-c3cc[nH]c(=O)c3)c(C)c(=O)c2c1 [Example 29A, 4-[8-[(1R)-1-[[2-(2-Fluorophenyl)-3-pyridyl]oxy]ethyl]-3,6-dimethyl-4-oxo-chromen-2-yl]-1H-pyridin-2-one]
